Results published in US20200397901A1, “PHOTORESPONSIVE SMOOTHENED LIGAND” (The University of Tokyo, priority 2018, published 2020).
Each block holds one molecule with its values, some of them ahead of it.

Columns and labels:
[1] = system: ventral cerebrum markers NKX2.1 and MASH1 in cerebral organoid; assay: Immunohistostaining of cerebral organoids with anti-NKX2.1 and anti-MASH1 antibody; format: cell-based, human
Procedure: (§1) The cell line iPSC 409B2 (Cell no. HPS0076) was obtained from National University Corporation Kyoto University through RIKEN BioResource Center Cell Bank. In order to maintain the undifferentiated state, the iPS cells were cultured in an Essential 8 medium on a dish coated with vitronectin (VNT-N, Thermofisher Scientific).
(§2) A cerebral organoid was prepared according to the method described in Lancaster et al., Nat Protoc. 9: 2329-2340, 2014. Using TrypLE™ (Thermofisher Scientific), hiPSCs cultured in an E8 medium were separated into single cells, which were then reaggregated to a cell mass having a density of approximately 10,000 cells, using a […] E6 medium, in a low-adhesion 96-well round bottom plate.
(§3) To the E6 medium, FGF2 (5 ng/mL, 0 to 4 days after initiation of the culture) and a ROCK inhibitor (Thiazovivine, 1μM, 0 to 4 days after initiation of the culture) were added. The medium was exchanged with a fresh one at 2 and 4 days after initiation of the culture. At 6 days after initiation of the culture, the medium was exchanged with a neural differentiation medium (DMEM/F12, 1% N2 supplement, insulin, 1% GlutaMax supplement, 1% NEAA, 1% penicillin-streptomycin, and 1 μg/mL heparin) containing SAG, caged SAG (photoresponsive protective group-binding SAG), or caged SAG before or after UV irradiation. When caged SAG was added, the culture was irradiated with a light for 15 minutes, using a halogen lamp. At 6, 8, and 10 days after initiation of the culture, the medium was exchanged with a fresh one.
Three types of organoids cultured under individual conditions were recovered at 11 days after initiation of the culture, and were then subjected to qPCR. […]
Thereafter, the organoid was cut into a frozen section with a size of […] and was recovered on a slide glass. […] A fluorescent image was obtained using an inverted fluorescence microscope equipped with a CMOS camera (Zyla4.2, Andor).

[2] = system: hedgehog signal downstream gene Gli in NIH-3T3 cells; assay: Hedgehog signal assay in NIH-3T3 cells (Gli expression, quantitative PCR); format: cell-based
Procedure: (§4) NIH-3T3 cells were allowed to grow in DMEM (supplemented with 10% FBS, glutamine, penicillin, and streptomycin). In order to perform a hedgehog signal assay, the cells that had been cultured to reach confluent were cultured in a starvation-induced medium (DMEM; serum not added) overnight, so that the cells were in a starved state. Subsequently, the medium was exchanged with a starvation-induced medium supplemented with SAG, caged SAG, SANT75, caged SANT75, or the like. Using a halogen lamp, the cells were irradiated with a light for 15 minutes. Thereafter, total RNA was extracted from the NIH-3T3 cells cultured for 6 hours, and was then subjected to real-time PCR.
(§5) Total RNA was extracted using TriPure Isolation Reagent kit (Roche Diagnosis). cDNA was synthesized using SuperScript (registered trademark) IV Reverse Transcriptase (Invitrogen). Quantitative PCR was carried out using KAPA SYBR Fast qPCR kit (KAPA Biosystems). The data were standardized with respect to the expression level of GAPDH.

[3] = biological target: Smoothened (Mus musculus, UniProt P56726); conditions: previously reported, Chen et al., Proc. Natl. Acad Sci, 99: 14071-14076, 2002; cited from earlier work
Sequence of Smoothened (P56726 33-793): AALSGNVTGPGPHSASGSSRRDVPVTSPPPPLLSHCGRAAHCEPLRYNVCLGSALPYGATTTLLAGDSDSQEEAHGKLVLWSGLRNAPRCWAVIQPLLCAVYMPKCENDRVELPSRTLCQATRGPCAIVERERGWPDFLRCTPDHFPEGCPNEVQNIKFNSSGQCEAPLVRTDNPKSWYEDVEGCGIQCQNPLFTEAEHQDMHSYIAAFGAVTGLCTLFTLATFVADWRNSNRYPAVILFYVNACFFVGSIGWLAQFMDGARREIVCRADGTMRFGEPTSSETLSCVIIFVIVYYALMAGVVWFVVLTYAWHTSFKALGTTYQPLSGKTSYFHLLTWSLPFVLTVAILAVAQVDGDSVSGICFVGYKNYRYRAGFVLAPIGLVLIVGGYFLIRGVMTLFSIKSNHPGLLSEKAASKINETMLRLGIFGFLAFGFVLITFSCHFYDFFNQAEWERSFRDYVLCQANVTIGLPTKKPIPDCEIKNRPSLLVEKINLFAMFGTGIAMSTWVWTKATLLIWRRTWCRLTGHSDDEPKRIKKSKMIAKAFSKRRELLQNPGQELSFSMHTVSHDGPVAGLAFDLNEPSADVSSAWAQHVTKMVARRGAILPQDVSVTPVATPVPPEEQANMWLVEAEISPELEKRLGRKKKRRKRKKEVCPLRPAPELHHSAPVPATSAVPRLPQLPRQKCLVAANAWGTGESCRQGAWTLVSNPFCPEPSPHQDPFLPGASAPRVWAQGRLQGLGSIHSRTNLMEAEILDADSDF

[4] = system: hedgehog signals (Glil expression); assay: Inhibition of SAG-induced hedgehog signals (Glil expression) by antagonist; format: cell-based; conditions: SAG 100 nM and SANT75 1 μM simultaneously
Procedure: as §4, §5

[5] = Photolysis kinetic analysis of caged SAG using HPLC (365 nm light); format: physicochemical; conditions: 100 μM caged SAG in PBS:DMSO=9:1, light at 365 nm, 0 to 8 J/cm^2, HPLC
Procedure: 100 μM Caged SAG (PBS:DMSO=9:1) was irradiated with a light at a wavelength of 365 nm at an energy intensity of 0 to 8 J/cm^2. Each sample was analyzed according to HPLC (5-C18-AR-II column, at 0 min, CH3CN:H2O=5:95, at 8 min, 30:70, and then at 15 min, 0:100). Each fraction obtained by HPLC was recovered, and was then analyzed according to ESI spectrometry.

[6] = system: ventral cerebrum markers NKX2.1 and MASH1 in cerebral organoid; assay: Expression of ventral cerebrum markers in cerebral organoids, quantitative PCR; format: cell-based, human
Procedure: as §1, §2, §3
Three types of organoids cultured under individual conditions were recovered at 11 days after initiation of the culture, and were then subjected to qPCR. Each organoid was embedded in a Matrigel droplet (25 μl), and was then transferred on a 60-mm dish containing a brain differentiation medium (DMEM/F12 : Neurobasal™ media=1:1, which was supplemented with a 0.5% N2 supplement, a 1% GlutaMax supplement, 0.5% NEAA, 1% penicillin-streptomycin, insulin, and a 1% B27 supplement (not containing vitamin A)). At 15 days after initiation of the culture, the medium was exchanged with a brain differentiation medium supplemented with a vitamin A-containing B27 supplement, and was then transferred into an Orbital Shaker. Thereafter, the medium was exchanged with a fresh one, every 4 or 5 days, until 30 days after initiation of the culture.
as §5

Compound: CNC1CCC(N(Cc2cccc(-c3ccncc3)c2)C(=O)c2sc3ccccc3c2Cl)CC1 (centres unmarked) [SAG, reference compound]
expression levels of NKX2.1 and MASH1 ([1]; cultured in the presence of SAG (SAG(+))): increased | activation (expression level of Gli) ([2]; SAG at 1 nM): only a little activation | activation (expression level of Gli) ([2]; SAG at 10 nM): activation was observed | expression level of Gli ([2]; cells cultured in the presence of SAG): increased | EC50 [3]: 3 nM

Compound: CCCNC1CCC(N(Cc2cccc(-c3ccncc3)c2)C(=O)c2sc3ccccc3c2Cl)CC1 (centres unmarked) [SANT75]
inhibition of hedgehog signals (expression level of Glil) [4]: competitive inhibition

energy intensity at which photolysis was almost completed [5]: 2-4 J/cn^2
Compound: COc1cc(C(C)OC(=O)N(C)C2CCC(N(Cc3cccc(-c4ccncc4)c3)C(=O)c3sc4ccccc4c3Cl)CC2)c([N+](=O)[O-])cc1OCCCC(=O)O (centres unmarked) [caged SAG]
Smo agonistic activity ([6]; as a result of light irradiation): the same level of Smo agonistic activity as that of SAG | expression levels of NKX2.1 and MASH1 ([6]; caged SAG after completion of light irradiation, 100 nM, quantitative PCR): increased | expression of the ventral cerebrum markers (NKX2.1 and MASH1) ([6]; caged SAG before light irradiation, 100 nM, quantitative PCR): not induced | activity of caged SAG ([6]; photodissociable protective group bound, without light irradiation): suppressed | expression levels of NKX2.1 and MASH1 ([1]; caged SAG after completion of light irradiation (100 nM)): increased | expression levels of NKX2.1 and MASH1 ([1]; cerebral organoid cultured in the presence of caged SAG irradiated with a light): increased | expression level of Gli ([2]; 100 nM caged SAG, cells irradiated with a light): increased | expression of Gli ([2]; 100 nM caged SAG, cells not irradiated with a light): could not be confirmed | activation (expression level of Gli) ([2]; caged SAG at 1 nM, with light irradiation): only a little activation | activation (expression level of Gli) ([2]; caged SAG at 10 nM, with light irradiation): activation was observed
